Reference: patent publication US6872750B2, “Modulating angiogenesis” (Regents of the University of California, priority 2000, dated 2005)

Key:
Kuz = assay: Inhibition of angiogenesis by Kuz inhibitors in several model systems
Experimental: The presence of Kuz and its activity is assayed by ELISA and Kuz-specific protease activity prior to or subsequent to the measure of angiogenesis.

HUVEC = HUVEC formation of vascular-like structures on Matrigel; assay type: cell-based, human; settings: HUVEC on growth factor-reduced Matrigel, 8-12 h
Experimental: The formation of vascular-like structures by HUVEC is assessed on the basement membrane matrix preparation, growth factor-reduced Matrigel (Becton Dickinson, Bedford, Mass.), as described in Kureishi Y, et al. Nat Med 2000 September;6(9):1004-10. Two-well chamber slides are coated with Matrigel (10 mg/ml) according to the manufacturer's instructions. HUVEC are seeded on coated plates at 4-5×10^4 cells/well in EBM and incubated at 37° C. for 60 minutes. The media are supplemented with the agents (metalloprotease domain of human Kuz, Kuz inhibitors, Kuz antibodies, VEGF, etc.) and incubated at 37° C. for 8-12 h. Tube formation image is observed using an inverted phase contrast microscope (Nikon Diaphot). Images are captured with a video graphic system (DEI-750 CE Digital Output Camera, Optronics, Goleta, Calif.). The degree of tube formation is quantified by measuring the length of tubes in random fields from each well using the National Institutes of Health (NIH) Image Program.

| Molecule | inhibition of angiogenesis (Kuz) | formation of capillary-like tubes (HUVEC) |
| --- | --- | --- |
| CNC(=O)[C@H](Cc1c[nH]c2ccccc12)NC(=O)[C@@H](CC(=O)NO)CC(C)C [GM6001, NHOHCOCH2CH(1-Bu)CO-Trp-NHMe] | inhibit angiogenesis |  |
| CC(C)CC(CC(=O)NO)C(=O)N[C@@H](C)C(=O)NCCN (stereo partly drawn) [IC-3, N-{D,L-[2-(hydroxyaminocarbonyl)methyl]-4-methyl-pentanoyl}-L-alanine, 2-aminoethyl amide] | inhibit angiogenesis |  |
| TIMP-1: natural MMP inhibitor, tissue inhibitor of MMPs | inhibit angiogenesis |  |
| VEGF |  | promotes the formation of capillary-like tubes |
